Values of other authors as cited in patent publication US20240066044A1, “METHODS AND COMPOSITIONS FOR INCREASING NAD+ METABOLOME IN HEALTHY MIDDLE-AGED POPULATION” (Bioenergy Life Science, Inc., priority 2021, published 2024).
Read-outs that look alike come from different tables or passages of the source.

Compound: NC(=O)c1cccnc1 [NAM, nicotinamide]
- daily tolerable upper dietary intake (Canada): 500 mg
- daily tolerable upper dietary intake (EU): 900 mg
- daily tolerable upper dietary intake (Japan): 5 mg/kg
- doses at which NAM is ineffective for boosting NAD+ (NAD+): below 90 mg per day
